Experiments:
Type in all cases: in vivo
Colletotrichum spp. = assay: Antifungal effect against Colletotrichum infection on wounded skin of pepper fruits (Colby synergy)
Text: wherein X and Y are the observed antifungal activities (in %) of the individual active ingredients x and y, respectively. If the observed antifungal activity (O in %) of the combination exceeds the expected antifungal activity (E in %) of the combination and the synergy factor O/E is thus >1.0, the combined application of the active ingredients leads to a synergistic antifungal effect. […]
For the treatment, 5 wounds per pepper side were done as previously described. In addition, one wound was done as negative control. Depending on the number of sides of the pepper, 3 to 4 treatments were done per paprika. Per wound 10 μl of treatment was placed on the wound. The treatments were let to dry in a down flow cabinet for about 30 minutes. After drying 5 μl spore suspension at a concentration of 10^7 spores per ml were placed on the wounds. The fungus was isolated from Colletotrichum-infected plant material and identified using techniques known to the person skilled in the art. The pepper were placed as described previously in a transparent container, with the difference that the containers were then placed in a transparent plastic zipper bag. The bags with peppers were placed at room temperature and in the dark for two days. After that the size of the lesions were measured. Assessment of the infection area was 4 days after inoculation. Experiment was performed in 5-fold.
(§1) The fungus was isolated from Colletotrichum-infected plant material and identified using techniques known to the person skilled in the art. Assessment of the infection area was performed 5 days after inoculation. Experiment was performed in 5-fold.
as §1, with “The active ingredient imidacloprid was formulated as described in Table 2. Imidacloprid belonging to IRAC Group 4. The” for “The”
The fungus was isolated from Colletotrichum-infected plant material and identified using techniques known to the person skilled in the art. Assessment of the efficacy was 5 days after inoculation. Experiment was performed in 5-fold.
The fungus was isolated from Colletotrichum-infected plant material and identified using techniques known to the person skilled in the art. Assessment of the infection area was performed 6 days after inoculation. Experiment was performed in 5-fold.
The fungus was isolated from Colletotrichum-infected plant material and identified using techniques known to the person skilled in the art. Assessment of the infection area was performed 4 days after inoculation. Experiment was performed in 5-fold.

Botrytis cinerea = assay: Antifungal effect against Botrytis cinerea infection on wounded peel of banana fruits (Colby synergy)
Text: (§2) wherein X and Y are the observed antifungal activities (in %) of the individual active ingredients x and y, respectively. If the observed antifungal activity (O in %) of the combination exceeds the expected antifungal activity (E in %) of the combination and the synergy factor O/E is thus >1.0, the combined application of the active ingredients leads to a synergistic antifungal effect.
(§3) Application: The broad bean pods were washed under tap water, and were subsequently surface sterilized by placing them in a 0.1% sodium hypochlorite solution for 5 minutes. The pods were then rinsed with tap water and dried. Transparent plastic containers were prepared by placing a piece of absorbing paper in the container and adding 25 ml of water, one container per treatment was used. The pods were cut in two, and two halve pods were incubated per box. The skin of broad bean pods was damaged with a needle, ø 2 mm and to a depth of about 3 mm into the fruit, with—depending on the size of the pod—2 to 4 wounds per half pod. In total, 6 wounds were incubated per treatment, of which 1 was used as a control. A volume of 20 microliter of a natamycin/insecticide composition, as presented herein above, was applied by pipette to each wound. The treatments were then left to air-dry. Once dried, a mycelium plug of Sclerotinia sclerotiorum was placed upside down on each wound, so that the mycelium was in direct contact with the wound. Per treatment 5 wounds were inoculated with the fungus, while the 6th and last wound was used as negative non-inoculated control. After inoculation, the containers were directly closed with a transparent plastic lid.
The infection area was measured 5 days after inoculation.
A few changes were made for the banana experiments: 5 wounds per banana were made, on each wound 40 microliter of treatments was pipetted. The treatments were then left to air-dry. Once dried, 2 microliter of a freshly prepared inoculum was pipetted on four of the wounds. The inoculum consists of […] potato dextrose broth (PDB) medium containing Botrytis cinerea spores at a concentration of 10^6 spores per ml. The fifth wound was used as negative non-inoculated control. Experiment was performed in 4-fold.
Assessment of the infection area was performed 3 days after inoculation. Experiment was performed in 4-fold.
Imidacloprid was formulated as described in Table 2. Assessment of the efficacy was 5 days after inoculation. Experiment was performed in 4-fold.

Sclerotinia sclerotiorum = assay: Antifungal effect against Sclerotinia sclerotiorum infection on wounded skin of broad bean pods (rot area, Colby synergy)
Text: The Colby equation (Colby, 1967. Weeds 15:20-22) calculates the expected antifungal activity (E in %) of a combination comprising more than one active ingredients:
as §2
• 1) Control (without natamycin and lambda-cyhalothrin) • 2) Natamycin at a level of 15 ppm • 3) Lambda-cyhalothrin (in the product KARATE ZEON® of Syngenta) at a levels of 0.15 ppm, 0.6 ppm, 3 ppm and 15 ppm • 4) Natamycin at a level of 15 ppm combined with lambda-cyhalothrin at levels of 0.15 ppm, 0.6 ppm, 3 ppm or 15 ppm.
Used pathogen: Sclerotinia sclerotiorum.
as §3
All pods were kept at room temperature (20° C.). Wounds of the pods were checked after 30 h of incubation.
Replicates: All treatments for the broad bean pod experiment were performed on two individual pod halves resulting in 5 wounds per treatment, while a sixth wound served as control.
The experiments were performed as described in Example 1.
The experiments were performed as described in Example 1. Assessment of the infection area was 23 h after inoculation. Experiment was performed in 5-fold.
The experiments were performed as described in Example 1. Thiamethoxam belongs to IRAC Group 4. Assessment of the infection area was 31 hours after inoculation. Experiment was performed in 5-fold.
The experiments were performed as described in Example 1. The product SPECTRE® of company (Adama) containing the active ingredient chlorfenapyr belonging to IRAC Group 13 was tested. Assessment of the infection area was 23 hours after inoculation. Experiment was performed in 5-fold.

[1] = natamycin:fipronil 0:0.01 ppm, 6 days after inoculation, Table 19
[2] = natamycin:fipronil 0:0.04 ppm, 6 days after inoculation, Table 19
[3] = natamycin:fipronil 0:1 ppm, 6 days after inoculation, Table 19
[4] = natamycin-insecticide 0:0.004 ppm, 3 days after inoculation, Table 14B
[5] = natamycin-insecticide 0:0.01 ppm, 3 days after inoculation, Table 14A
[6] = natamycin-insecticide 0:0.04 ppm, 3 days after inoculation, Table 14A
[7] = natamycin-insecticide 0:1 ppm, 3 days after inoculation, Table 14A
[8] = natamycin-insecticide 0:0.01 ppm, 5 days after inoculation, Table 15
[9] = natamycin-insecticide 0:0.04 ppm, 5 days after inoculation, Table 15
[10] = natamycin-insecticide 0:1 ppm, 5 days after inoculation, Table 15
[11] = natamycin-insecticide 0-0.15 ppm, 23 h after inoculation, Table 7
[12] = natamycin-insecticide 0-0.6 ppm, 23 h after inoculation, Table 7
[13] = natamycin-insecticide 0-3 ppm, 23 h after inoculation, Table 7
[14] = natamycin-insecticide 0-15 ppm, 23 h after inoculation, Table 7
[15] = natamycin-insecticide 0:0.01 ppm, 5 days after inoculation, Table 17
[16] = natamycin-insecticide 0:0.04 ppm, 5 days after inoculation, Table 17
[17] = natamycin-insecticide 0:1 ppm, 5 days after inoculation, Table 17
[18] = natamycin-insecticide 0-0.15 ppm, 23 hours after inoculation, Table 9
[19] = natamycin-insecticide 0-0.6 ppm, 23 hours after inoculation, Table 9
[20] = natamycin-insecticide 0-3 ppm, 23 hours after inoculation, Table 9
[21] = natamycin-insecticide 0-15 ppm, 23 hours after inoculation, Table 9
[22] = natamycin-insecticide 0:0.004 ppm, 5 days after inoculation, Table 18B
[23] = natamycin-insecticide 0:0.01 ppm, 5 days after inoculation, Table 18A
[24] = natamycin-insecticide 0:0.04 ppm, 5 days after inoculation, Table 18A
[25] = natamycin-insecticide 0:1 ppm, 5 days after inoculation, Table 18A
[26] = natamycin-insecticide 0:0.01 ppm, 5 days after inoculation, Table 16
[27] = natamycin-insecticide 0:0.04 ppm, 5 days after inoculation, Table 16
[28] = natamycin-insecticide 0-0.15 ppm, 31 hours after inoculation, Table 8
[29] = natamycin-insecticide 0-0.6 ppm, 31 hours after inoculation, Table 8
[30] = natamycin-insecticide 0-3 ppm, 31 hours after inoculation, Table 8
[31] = natamycin-insecticide 0-15 ppm, 31 hours after inoculation, Table 8
[32] = natamycin:abamectin 0:0.01 ppm, 4 days after inoculation, Table 20
[33] = natamycin:abamectin 0:0.04 ppm, 4 days after inoculation, Table 20
[34] = natamycin-insecticide 0:0.01 ppm, 4 days after inoculation, Table 13
[35] = natamycin-insecticide 0:0.04 ppm, 4 days after inoculation, Table 13
[36] = natamycin-insecticide 0:1 ppm, 4 days after inoculation, Table 13

Molecule: N#Cc1nn(-c2c(Cl)cc(C(F)(F)F)cc2Cl)c(N)c1[S+]([O-])C(F)(F)F (racemic) [fipronil, (±)-5-amino-1-(2,6-dichloro-α,α,α-trifluoro-p-tolyl)-4-trifluoromethyl sulfinylpyrazole-3-carbonitrile]
- Avg infected area (Colletotrichum spp.; [1]): 88.2 mm^2
- Observed antifungal activity (Colletotrichum spp.; [1]): −76.1%
- Avg infected area (Colletotrichum spp.; [2]): 76.8 mm^2
- Observed antifungal activity (Colletotrichum spp.; [2]): −53.4%
- Avg infected area (Colletotrichum spp.; [3]): 80.4 mm^2
- Observed antifungal activity (Colletotrichum spp.; [3]): −60.5%

Molecule: CC1(C)[C@H](C(=O)O[C@H](C#N)c2cccc(Oc3ccccc3)c2)[C@@H]1C=C(Cl)Cl [alpha-cypermethrin, [(S)-cyano-(3-phenoxyphenyl)methyl] (1R,3R)-3-(2,2-dichloroethenyl)-2,2-dimethylcyclopropane-1-carboxylate]
- Avg infected area (Botrytis cinerea; [4]): 6.2 mm2
- Observed antifungal activity (Botrytis cinerea; [4]): 37.2%
- Avg infected area (Botrytis cinerea; [5]): 9.0 mm2
- Observed antifungal activity (Botrytis cinerea; [5]): 20.5%
- Avg infected area (Botrytis cinerea; [6]): 9.1 mm2
- Observed antifungal activity (Botrytis cinerea; [6]): 19.8%
- Avg infected area (Botrytis cinerea; [7]): 9.9 mm2
- Observed antifungal activity (Botrytis cinerea; [7]): 12.8%
- Avg infected area (Colletotrichum spp.; [8]): 44.8 mm2
- Observed antifungal activity (Colletotrichum spp.; [8]): −6.1%
- Avg infected area (Colletotrichum spp.; [9]): 22.5 mm2
- Observed antifungal activity (Colletotrichum spp.; [9]): 46.7%
- Avg infected area (Colletotrichum spp.; [10]): 20.6 mm2
- Observed antifungal activity (Colletotrichum spp.; [10]): 51.2%

Molecule: C/C=C(\C)C(=O)O[C@H]1C[C@@H](OC(C)=O)[C@@]2(C(=O)OC)CO[C@H]3[C@@H](O)[C@@](C)([C@]45O[C@@]4(C)[C@H]4C[C@@H]5O[C@@H]5OC=C[C@@]54O)[C@H]4[C@]1(CO[C@]4(O)C(=O)OC)[C@@H]32 [azadirachtin]
- Avg infected area (Sclerotinia sclerotiorum; [11]): 80.2 mm2
- Observed antifungal activity (Sclerotinia sclerotiorum; [11]): 41.3%
- Avg infected area (Sclerotinia sclerotiorum; [12]): 82.0 mm2
- Observed antifungal activity (Sclerotinia sclerotiorum; [12]): 40%
- Avg infected area (Sclerotinia sclerotiorum; [13]): 98.3 mm2
- Observed antifungal activity (Sclerotinia sclerotiorum; [13]): 28.1%
- Avg infected area (Sclerotinia sclerotiorum; [14]): 123.1 mm2
- Observed antifungal activity (Sclerotinia sclerotiorum; [14]): 9.9%

Molecule: CNC(=O)c1cc(Cl)cc(C)c1NC(=O)c1cc(Br)nn1-c1ncccc1Cl [chlorantraniliprole, 5-bromo-N-[4-chloro-2-methyl-6-(methylcarbamoyl)phenyl]-2-(3-chloropyridin-2-yl) pyrazole-3-carboxamide]
- Avg infected area (Colletotrichum spp.; [15]): 38.8 mm2
- Observed antifungal activity (Colletotrichum spp.; [15]): 29.8%
- Avg infected area (Colletotrichum spp.; [16]): 55.6 mm2
- Observed antifungal activity (Colletotrichum spp.; [16]): −0.7%
- Avg infected area (Colletotrichum spp.; [17]): 66.4 mm2
- Observed antifungal activity (Colletotrichum spp.; [17]): −20.2%

Molecule: CCOCn1c(-c2ccc(Cl)cc2)c(C#N)c(Br)c1C(F)(F)F [chlorfenapyr]
- Avg infected area (Sclerotinia sclerotiorum; [18]): 86.9 mm2
- Observed antifungal activity (Sclerotinia sclerotiorum; [18]): 23.6%
- Avg infected area (Sclerotinia sclerotiorum; [19]): 71.3 mm2
- Observed antifungal activity (Sclerotinia sclerotiorum; [19]): 37.3%
- Avg infected area (Sclerotinia sclerotiorum; [20]): 92.3 mm2
- Observed antifungal activity (Sclerotinia sclerotiorum; [20]): 18.8%
- Avg infected area (Sclerotinia sclerotiorum; [21]): 94.9 mm2
- Observed antifungal activity (Sclerotinia sclerotiorum; [21]): 16.5%

Molecule: O=[N+]([O-])NC1=NCCN1Cc1ccc(Cl)nc1 [imidacloprid, N-[1-[(6-chloropyridin-3-yl)methyl]-4,5-dihydroimidazol-2-yl]nitramide]
- Avg infected area (Botrytis cinerea; [22]): 16.6 mm2
- Observed antifungal activity (Botrytis cinerea; [22]): 43.3%
- Avg infected area (Botrytis cinerea; [23]): 35.6 mm2
- Observed antifungal activity (Botrytis cinerea; [23]): 27.6%
- Avg infected area (Botrytis cinerea; [24]): 53.2 mm2
- Observed antifungal activity (Botrytis cinerea; [24]): −8.3%
- Avg infected area (Botrytis cinerea; [25]): 32.4 mm2
- Observed antifungal activity (Botrytis cinerea; [25]): 34.1%
- Avg infected area (Colletotrichum spp.; [26]): 18.5 mm2
- Observed antifungal activity (Colletotrichum spp.; [26]): 56.3%
- Avg infected area (Colletotrichum spp.; [27]): 23.3 mm2
- Observed antifungal activity (Colletotrichum spp.; [27]): 44.7%
- Avg infected area (Colletotrichum spp.; natamycin-insecticide 0:1 ppm, 5 days after inoculation, Table 16): 27.9 mm2

Molecule: CN1COCN(Cc2cnc(Cl)s2)C1=N[N+](=O)[O-] [thiamethoxam, N-[3-[(2-chloro-1,3-thiazol-5-yl)methyl]-5-methyl-1,3,5-oxadiazinan-4-ylidene]nitramide]
- Avg infected area (Sclerotinia sclerotiorum; [28]): 250.6 mm2
- Observed antifungal activity (Sclerotinia sclerotiorum; [28]): 2.9%
- Avg infected area (Sclerotinia sclerotiorum; [29]): 270.9 mm2
- Observed antifungal activity (Sclerotinia sclerotiorum; [29]): −4.9%
- Avg infected area (Sclerotinia sclerotiorum; [30]): 253.2 mm2
- Observed antifungal activity (Sclerotinia sclerotiorum; [30]): 1.9%
- Avg infected area (Sclerotinia sclerotiorum; [31]): 254.1 mm2
- Observed antifungal activity (Sclerotinia sclerotiorum; [31]): 1.6%

Molecule: abamectin
- Avg infected area (Colletotrichum spp.; [32]): 29.0 mm2
- Observed antifungal activity (Colletotrichum spp.; [32]): −29.3%
- Avg infected area (Colletotrichum spp.; [33]): 30.7 mm2
- Observed antifungal activity (Colletotrichum spp.; [33]): −37.0%

Molecule: emamectin benzoate [emamection benzoate]
- Avg infected area (Colletotrichum spp.; [34]): 30.6 mm2
- Observed antifungal activity (Colletotrichum spp.; [34]): −90.1%
- Avg infected area (Colletotrichum spp.; [35]): 16.6 mm2
- Observed antifungal activity (Colletotrichum spp.; [35]): −3.5%
- Avg infected area (Colletotrichum spp.; [36]): 24 mm2
- Observed antifungal activity (Colletotrichum spp.; [36]): −49.1%
